From ChEMBL document CHEMBL5050844 (2019)

Key:
[1] = target: T1, E3 ubiquitin-protein ligase CBL-B (Homo sapiens, UniProt Q13191); assay: Inhibition of N-terminal Avi-tagged human CBL-B (36 to 427 residues) incubated with 60 nM Src kinase for 1.5 hrs followed by incubation with fluorescently labeled UbcH5B-Ub for 1 hr and measured by TR-FRET assay; type: single protein
[2] = target: T1, E3 ubiquitin-protein ligase CBL-B; assay: Binding affinity towards N-terminal biotinylated Avi-tagged human CBL-B (36 to 427 residues) measured by surface plasmon resonance assay
[3] = Induction of anti-CD3/CD28 antibodies-stimulated human T cell activation at 0.3 uM assessed fold increase in IL-2 secretion measured by ELISA assay; type: functional, T cell line
[4] = Induction of anti-CD3 antibodies-stimulated human T cell activation at 8 uM assessed fold increase in IL-2 secretion measured by ELISA assay; type: functional, T cell line; also: reference of the scale not given here
[5] = Induction of anti-CD3/CD28 antibodies-stimulated human T cell activation at 1 uM assessed fold increase in CD25 expression measured by ELISA assay; type: functional, T cell line
[6] = Induction of anti-CD3/CD28 antibodies-stimulated human T cell activation at 0.3 uM assessed fold increase in CD25 expression measured by ELISA assay; type: functional, T cell line
[7] = Induction of anti-CD3 antibodies-stimulated human T cell activation at 8 uM assessed fold increase in CD25 expression measured by ELISA assay; type: functional, T cell line; also: reference of the scale not given here
[8] = Induction of anti-CD3 antibodies-stimulated human T cell activation at 1 uM assessed fold increase in CD25 expression measured by ELISA assay; type: functional, T cell line; also: reference of the scale not given here
[9] = Induction of anti-CD3/CD28 antibodies-stimulated human CD4+ T cell activation at 1.11 uM assessed fold increase in cell proliferation measured by flow cytometry analysis; type: functional, T cell line
[10] = Induction of anti-CD3/CD28 antibodies-stimulated human CD8+ T cell activation at 10 uM assessed fold increase in cell proliferation measured by flow cytometry analysis; type: functional, T cell line
[11] = Induction of anti-CD3 antibodies-stimulated human CD4+ T cell activation at 1.11 uM assessed fold increase in CD69 expression measured by flow cytometry analysis; type: functional, T cell line; also: reference of the scale not given here
[12] = Induction of anti-CD3/CD28 antibodies-stimulated human T cell activation at 10 uM assessed fold increase in TNF-alpha secretion measured by ELISA assay; type: functional, T cell line
[13] = Induction of anti-CD3/CD28 antibodies-stimulated human T cell activation at 10 uM assessed fold increase in IFN-gamma secretion measured by ELISA assay; type: functional, T cell line
[14] = Induction of anti-CD3 antibodies-stimulated human T cell activation at 10 uM assessed fold increase in IFN-gamma secretion measured by ELISA assay; type: functional, T cell line; also: reference of the scale not given here
[15] = Induction of allogenic human T cell activation at 10 uM assessed fold increase in cell proliferation; type: functional, T cell line
[16] = Induction of anti-CD3 antibodies-stimulated human exhausted CD8+ T cell activation assessed fold increase in CTLA4 expression measured by flow cytometry analysis; type: functional, T cell line; also: reference of the scale not given here
[17] = Induction of anti-CD3/CD28 antibodies-stimulated human anergic T cell activation at 1.11 uM assessed fold increase in IFN-gamma secretion measured by ELISA assay; type: functional, T cell line
[18] = Induction of activation of human CD56+ CD3- NK cells co-cultured with human K562 cells in 5:1 ratio and assessed as increase in IFN-gamma secretion at 10 uM measured by ELISA assay; type: functional, Natural killer cell
[19] = Induction of activation of human CD56+ CD3- NK cells co-cultured with human K562 cells in 5:1 ratio and assessed as increase in IFN-gamma secretion at 1 uM measured by ELISA assay; type: functional, Natural killer cell
[20] = Induction of activation of human CD56+ CD3- NK cells co-cultured with human K562 cells in 1:1 ratio and assessed as increase in IFN-gamma secretion at 1 uM measured by ELISA assay; type: functional, Natural killer cell
[21] = Induction of activation of human CD56+ CD3- NK cells co-cultured with human K562 cells in 5:1 ratio and assessed as increase in TNF-alpha secretion at 10 uM measured by ELISA assay; type: functional, Natural killer cell
[22] = Induction of activation of human CD56+ CD3- NK cells co-cultured with human K562 cells in 5:1 ratio and assessed as increase in TNF-alpha secretion at 1 uM measured by ELISA assay; type: functional, Natural killer cell
[23] = Induction of activation of human CD56+ CD3- NK cells co-cultured with human K562 cells in 1:1 ratio and assessed as increase in TNF-alpha secretion at 1 uM measured by ELISA assay; type: functional, Natural killer cell
[24] = Induction of activation of human CD56+ CD3- NK cells co-cultured with human K562 cells in 5:1 ratio and assessed as increase in MIP1beta secretion at 10 uM measured by ELISA assay; type: functional, Natural killer cell
[25] = Induction of activation of human CD56+ CD3- NK cells co-cultured with human K562 cells in 5:1 ratio and assessed as increase in MIP1beta secretion at 1 uM measured by ELISA assay; type: functional, Natural killer cell
[26] = Induction of activation of human CD56+ CD3- NK cells co-cultured with human K562 cells in 1:1 ratio and assessed as increase in MIP1beta secretion at 10 uM measured by ELISA assay; type: functional, Natural killer cell
[27] = Induction of activation of human CD56+ CD3- NK cells co-cultured with human K562 cells in 1:1 ratio and assessed as increase in MIP1beta secretion at 1 uM measured by ELISA assay; type: functional, Natural killer cell
[28] = Induction of anti-CD3 antibodies-stimulated human CD4+ T cell activation in immunocompetent mouse assessed fold increase in CD25 expression at 90 mg/kg, ip administered twice a day; type: functional; also: reference of the scale not given here
[29] = Induction of anti-CD3 antibodies-stimulated human CD4+ T cell activation in immunocompetent mouse assessed fold increase in CD25 expression at 90 mg/kg, po administered twice a day; type: functional; also: reference of the scale not given here
[30] = Induction of anti-CD3 antibodies-stimulated human CD4+ T cell activation in immunocompetent mouse assessed fold increase in CD25 expression at 135 mg/kg, po administered twice a day; type: functional; also: reference of the scale not given here
[31] = Induction of anti-CD3 antibodies-stimulated human CD4+ T cell activation in immunocompetent mouse assessed fold increase in CD25 expression at 180 mg/kg, po administered twice a day; type: functional; also: reference of the scale not given here
[32] = Induction of anti-CD3 antibodies-stimulated human CD8+ T cell activation in immunocompetent mouse assessed fold increase in CD25 expression at 90 mg/kg, ip administered thrice a day; type: functional; also: reference of the scale not given here
[33] = Induction of anti-CD3 antibodies-stimulated human CD8+ T cell activation in immunocompetent mouse assessed fold increase in CD25 expression at 90 mg/kg, po administered twice a day; type: functional; also: reference of the scale not given here
[34] = Induction of anti-CD3 antibodies-stimulated human CD8+ T cell activation in immunocompetent mouse assessed fold increase in CD25 expression at 135 mg/kg, po administered twice a day; type: functional; also: reference of the scale not given here
[35] = Induction of anti-CD3 antibodies-stimulated human CD8+ T cell activation in immunocompetent mouse assessed fold increase in CD25 expression at 180 mg/kg, po administered twice a day; type: functional; also: reference of the scale not given here

T1 sequence (Q13191 whole entry, the tested form may be a part): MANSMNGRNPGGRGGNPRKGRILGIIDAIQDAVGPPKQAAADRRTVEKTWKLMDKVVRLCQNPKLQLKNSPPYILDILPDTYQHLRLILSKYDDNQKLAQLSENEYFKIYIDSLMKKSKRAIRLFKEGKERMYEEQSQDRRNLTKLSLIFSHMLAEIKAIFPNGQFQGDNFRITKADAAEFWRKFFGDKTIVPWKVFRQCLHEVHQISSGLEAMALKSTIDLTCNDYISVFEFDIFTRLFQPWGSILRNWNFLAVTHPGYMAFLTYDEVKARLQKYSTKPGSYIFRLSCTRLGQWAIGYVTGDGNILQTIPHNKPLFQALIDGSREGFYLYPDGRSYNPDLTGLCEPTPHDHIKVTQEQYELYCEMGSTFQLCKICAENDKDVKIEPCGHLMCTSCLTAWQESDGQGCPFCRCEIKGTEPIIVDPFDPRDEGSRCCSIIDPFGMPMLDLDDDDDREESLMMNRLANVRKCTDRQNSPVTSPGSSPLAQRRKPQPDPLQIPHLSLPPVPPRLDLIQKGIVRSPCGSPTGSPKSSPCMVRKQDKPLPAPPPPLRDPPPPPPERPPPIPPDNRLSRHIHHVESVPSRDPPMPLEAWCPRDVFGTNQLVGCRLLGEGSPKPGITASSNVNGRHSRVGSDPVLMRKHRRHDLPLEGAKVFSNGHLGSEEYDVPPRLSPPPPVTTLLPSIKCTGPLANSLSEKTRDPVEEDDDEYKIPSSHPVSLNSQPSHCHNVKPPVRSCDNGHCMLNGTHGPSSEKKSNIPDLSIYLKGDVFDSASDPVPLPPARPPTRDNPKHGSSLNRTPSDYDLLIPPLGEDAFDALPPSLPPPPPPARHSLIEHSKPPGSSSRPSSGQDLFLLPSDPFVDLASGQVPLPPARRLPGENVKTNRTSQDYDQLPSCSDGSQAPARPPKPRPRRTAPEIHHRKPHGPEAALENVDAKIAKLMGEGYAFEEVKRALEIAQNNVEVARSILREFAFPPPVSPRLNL

C[C@H](Cc1nncn1C)c1cccc(N2Cc3c(cc(CN4CC[C@H](F)C4)cc3C(F)(F)F)C2=O)c1
IC50 [1]: < 100 nM | Kd [2]: < 100 nM | fold change (FC) [3]: 5 | fold change (FC) [4]: >=0.201 | fold change (FC) [5]: 1.31 | fold change (FC) [6]: 1.01 | fold change (FC) [7]: >=1.001 | fold change (FC) [8]: >=1.001 | fold change (FC) [9]: >4 | fold change (FC) [10]: >4 | fold change (FC) [11]: >1.601 | fold change (FC) [12]: 2.01 | fold change (FC) [13]: >4 | fold change (FC) [14]: >4 | fold change (FC) [15]: >3 | fold change (FC) [16]: >1.61 | fold change (FC) [17]: >4.01 | fold change (FC) [18]: >=5 | fold change (FC) [19]: 2.01 | fold change (FC) [20]: 2.01 | fold change (FC) [21]: >=5 | fold change (FC) [22]: 2.01 | fold change (FC) [23]: 2.01 | fold change (FC) [24]: 1.01 | fold change (FC) [25]: 1.01 | fold change (FC) [26]: 1.01 | fold change (FC) [27]: 1.01

Cc1cc(C(=O)Nc2cccc(C3(Cc4nncn4C)COC3)c2)nc(C2CC2)n1
IC50 [1]: < 100 nM | Kd [2]: < 100 nM | fold change (FC) [3]: 5 | fold change (FC) [4]: >=0.201 | fold change (FC) [5]: >=1.76 | fold change (FC) [6]: 1.31 | fold change (FC) [7]: >=1.001 | fold change (FC) [8]: >=1.001 | fold change (FC) [9]: >4 | fold change (FC) [10]: >4 | fold change (FC) [11]: 1.401 | fold change (FC) [12]: 2.01 | fold change (FC) [13]: >4 | fold change (FC) [14]: >4 | fold change (FC) [15]: >3 | fold change (FC) [16]: <=1.4 | fold change (FC) [17]: 2.51 | fold change (FC) [28]: 1 | fold change (FC) [29]: 1 | fold change (FC) [30]: 1.51 | fold change (FC) [31]: 1.51 | fold change (FC) [32]: 1 | fold change (FC) [33]: 1 | fold change (FC) [34]: 1 | fold change (FC) [35]: 1

C[C@H](Cc1nncn1C)c1cccc(N2Cc3c(cccc3C(F)(F)F)C2=O)c1.Cl
IC50 [1]: < 100 nM | fold change (FC) [3]: 1.01 | fold change (FC) [4]: >=0.201 | fold change (FC) [5]: 1.51 | fold change (FC) [6]: 1.31 | fold change (FC) [7]: >=1.001 | fold change (FC) [8]: 0.601 | fold change (FC) [9]: <=2 | fold change (FC) [10]: 2.01 | fold change (FC) [11]: <=1.2 | fold change (FC) [12]: 1.51 | fold change (FC) [13]: >4 | fold change (FC) [14]: <=2 | fold change (FC) [15]: <=2 | fold change (FC) [16]: 1.41 | fold change (FC) [17]: 2.51 | fold change (FC) [28]: 1 | fold change (FC) [33]: <1 | fold change (FC) [18]: >=5 | fold change (FC) [19]: 1.01 | fold change (FC) [20]: 1.01 | fold change (FC) [21]: <=1 | fold change (FC) [22]: <=1 | fold change (FC) [23]: <=1 | fold change (FC) [24]: 1.01 | fold change (FC) [25]: <=1 | fold change (FC) [26]: 1.01 | fold change (FC) [27]: <=1

Cn1cnnc1C(F)(F)[C@](C)(F)c1cccc(N2Cc3c(cc(C(=O)N4CC[C@H](O)C4)cc3C(F)(F)F)C2=O)c1
IC50 [1]: < 100 nM | fold change (FC) [3]: 1.01 | fold change (FC) [4]: >=0.201 | fold change (FC) [5]: 1.01 | fold change (FC) [6]: 1.01 | fold change (FC) [7]: >=1.001 | fold change (FC) [8]: 0.801 | fold change (FC) [9]: 3.01 | fold change (FC) [10]: 3.01 | fold change (FC) [11]: 1.201 | fold change (FC) [12]: 2.01 | fold change (FC) [13]: 2.01 | fold change (FC) [14]: 2.01 | fold change (FC) [15]: <=2 | fold change (FC) [16]: <=1.4 | fold change (FC) [17]: <=2.5 | fold change (FC) [18]: 1.01 | fold change (FC) [19]: <=1 | fold change (FC) [20]: <=1 | fold change (FC) [21]: 1.01 | fold change (FC) [22]: 1.01 | fold change (FC) [23]: 1.01 | fold change (FC) [24]: 1.01 | fold change (FC) [25]: <=1 | fold change (FC) [26]: <=1 | fold change (FC) [27]: <=1

Cn1cnnc1CC1(c2cccc(N3Cc4c(cc(CN5CCC6(CC6)C5)cc4C(F)(F)F)C3=O)c2)COC1
IC50 [1]: < 100 nM | fold change (FC) [3]: >=7.5 | fold change (FC) [5]: 1.31 | fold change (FC) [6]: 1.31 | fold change (FC) [8]: >=1.001 | fold change (FC) [9]: >4 | fold change (FC) [10]: >4 | fold change (FC) [11]: >1.601 | fold change (FC) [12]: >4 | fold change (FC) [13]: >4 | fold change (FC) [14]: >4 | fold change (FC) [15]: >3 | fold change (FC) [16]: >1.61 | fold change (FC) [17]: 2.51 | fold change (FC) [28]: 1 | fold change (FC) [29]: 1 | fold change (FC) [30]: 1.51 | fold change (FC) [31]: 2.01 | fold change (FC) [32]: 1 | fold change (FC) [33]: 1 | fold change (FC) [34]: 1 | fold change (FC) [35]: 1

Cc1cc(C(=O)Nc2cccc([C@H](C)Cc3nncn3C)c2)nc(C2CC2)n1
IC50 [1]: < 100 nM | Kd [2]: < 100 nM | fold change (FC) [3]: 5 | fold change (FC) [4]: >=0.201 | fold change (FC) [5]: >=1.76 | fold change (FC) [6]: 1.51 | fold change (FC) [7]: >=1.001 | fold change (FC) [8]: >=1.001 | fold change (FC) [9]: <=2 | fold change (FC) [10]: >4 | fold change (FC) [11]: <=1.2 | fold change (FC) [12]: >4 | fold change (FC) [13]: >4 | fold change (FC) [14]: >4 | fold change (FC) [15]: 2.01 | fold change (FC) [16]: >1.61 | fold change (FC) [17]: <=2.5 | fold change (FC) [29]: 1 | fold change (FC) [30]: 1 | fold change (FC) [31]: 1.51 | fold change (FC) [32]: 1 | fold change (FC) [34]: 1 | fold change (FC) [35]: 1 | fold change (FC) [18]: >=5 | fold change (FC) [19]: 2.01 | fold change (FC) [20]: 2.01 | fold change (FC) [21]: >=5 | fold change (FC) [22]: 2.01 | fold change (FC) [23]: 2.01 | fold change (FC) [24]: 2.01 | fold change (FC) [25]: 2.01 | fold change (FC) [26]: 2.01 | fold change (FC) [27]: 1.01
